Measurements taken from ChEMBL document CHEMBL5120754, “Structural modification aimed for improving solubility of lead compounds in early phase drug discovery” (Bioorg Med Chem, 2022).
In brackets after ≈: the same amount, converted by molar mass.

Key:
[1] = target: Isocitrate dehydrogenase [NADP] cytoplasmic (Homo sapiens, UniProt O75874, R132H); test: Inhibition of IDH1 R132H mutant (unknown origin)
physchem = settings: buffer

Chain of Isocitrate dehydrogenase [NADP] cytoplasmic (O75874 2-414 R132H limits assumed): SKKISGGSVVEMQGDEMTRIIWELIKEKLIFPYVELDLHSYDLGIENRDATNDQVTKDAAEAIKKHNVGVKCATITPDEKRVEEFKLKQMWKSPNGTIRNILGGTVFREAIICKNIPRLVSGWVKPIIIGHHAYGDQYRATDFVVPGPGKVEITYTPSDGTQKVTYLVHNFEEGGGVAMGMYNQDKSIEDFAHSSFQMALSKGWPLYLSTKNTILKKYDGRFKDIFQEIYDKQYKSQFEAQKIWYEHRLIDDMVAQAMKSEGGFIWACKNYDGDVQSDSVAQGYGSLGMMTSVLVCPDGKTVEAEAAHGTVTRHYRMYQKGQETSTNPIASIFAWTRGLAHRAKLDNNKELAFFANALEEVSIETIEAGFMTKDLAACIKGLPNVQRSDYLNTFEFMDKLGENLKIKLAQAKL

IC50 [1]: 0.0814 µM
solubility thermodynamic (physchem): 10.5 µM (≈ 3.74 µg/mL)
SMILES: COc1nc(N[C@@H](C)c2cc3cc(Cl)ccc3[nH]c2=O)ncc1C#N
